Patent US9346815B2, “5-chloro-2-difluoromethoxyphenyl pyrazolopyrimidine compounds, compositions and methods of use thereof” (Genentech, Inc., priority 2014, dated 2016)
Counter-ions that a name gives are not always drawn. Like-named read-outs stand apart in the source and are kept apart here.

Columns and labels:
[1] = target: isolated recombinant JAK2 kinase domain (Homo sapiens (Human), UniProt O60674); experiment: JAK2 enzyme assay (Caliper LabChip, peptide phosphorylation); type: biochemical; conditions: 25 μM ATP
isolated recombinant JAK2 kinase domain, sequence (O60674 849-1124): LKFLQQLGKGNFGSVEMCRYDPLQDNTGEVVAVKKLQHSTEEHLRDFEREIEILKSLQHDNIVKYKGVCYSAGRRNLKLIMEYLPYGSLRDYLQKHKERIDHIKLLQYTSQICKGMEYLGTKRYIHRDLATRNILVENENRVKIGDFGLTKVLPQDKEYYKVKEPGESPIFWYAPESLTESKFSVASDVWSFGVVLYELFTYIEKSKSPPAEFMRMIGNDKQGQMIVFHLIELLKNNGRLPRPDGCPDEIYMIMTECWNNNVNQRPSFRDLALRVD

[2] = target: isolated recombinant JAK1 kinase domain (Homo sapiens (Human), UniProt P23458); experiment: JAK1 enzyme assay (Caliper LabChip, peptide phosphorylation); type: biochemical
isolated recombinant JAK1 kinase domain, sequence (P23458 875-1153): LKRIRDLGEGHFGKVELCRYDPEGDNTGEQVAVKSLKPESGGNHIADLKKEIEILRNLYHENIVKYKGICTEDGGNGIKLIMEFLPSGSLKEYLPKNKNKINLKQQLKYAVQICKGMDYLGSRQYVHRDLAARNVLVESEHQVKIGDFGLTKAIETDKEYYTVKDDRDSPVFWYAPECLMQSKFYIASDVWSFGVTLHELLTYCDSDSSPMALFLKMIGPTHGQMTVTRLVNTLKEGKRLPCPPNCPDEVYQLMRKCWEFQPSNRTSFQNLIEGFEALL

[3] = test system: JAK1-dependent STAT6 phosphorylation downstream of IL-13 stimulation in BEAS-2B human bronchial epithelial cells; experiment: JAK1 pathway assay in BEAS-2B cells (IL-13-pSTAT6, MSD); type: cell-based; conditions: read-out: IL13-pSTAT6 EC50 (uM)_BEAS-2B
How it was run: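 Inhibitors were added to TF-1 cells (GM-CSF-starved, serum-free) for 30 min or to BEAS-2B cells (complete medium) for 1 hr at 37° C. MSD detected pSTAT6.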

[4] = isolated recombinant JAK1 kinase domain, 25 μM ATP

SMILES | Ki [1] [nM] | Ki [2, 4] [nM] | EC50 [3] [µM] | Ki [2] [nM]
CN(C)C(=O)[C@@H]1CCCN1C1CCN(C(=O)Cn2cc(NC(=O)c3cnn4cccnc34)c(-c3cc(Cl)ccc3OC(F)F)n2)CC1 [Example 424, N-(3-(5-chloro-2-(difluoromethoxy)phenyl)-1-(2-(4-((S)-2-(dimethylcarbamoyl)pyrrolidin-1-yl)piperidin-1-yl)-2-oxoethyl)-1H-pyrazol-4-yl)pyrazolo[1,5-a]pyrimidine-3-carboxamide] | 3.44 | 1.12 | 0.0987 | 
O=C(Nc1cn([C@H]2CCNC[C@@H]2O)nc1-c1cc(Cl)ccc1OC(F)F)c1cnn2cccnc12 [Example 359, N-[3-[5-chloro-2-(difluoromethoxy)phenyl]-1-[(3S,4S)-3-hydroxypiperidin-4-yl]-1H-pyrazol-4-yl]pyrazolo[1,5-a]pyrimidine-3-carboxamide] | 2.7 | 3.85 | 0.0309 | 
CC(C)(C)OC(=O)N1CC[C@@H](n2cc(NC(=O)c3cnn4cccnc34)c(-c3cc(Cl)ccc3OC(F)F)n2)[C@H](O)C1 (single isomer, unassigned) [Example 354] | 1.05 | 0.72 | 0.024 | 
CN1CCC(=CCn2cc(NC(=O)c3cnn4cccnc34)c(-c3cc(Cl)ccc3OC(F)F)n2)CC1 [Example 415, N-(3-(5-chloro-2-(difluoromethoxy)phenyl)-1-(2-(1-methylpiperidin-4-ylidene)ethyl)-1H-pyrazol-4-yl)pyrazolo[1,5-a]pyrimidine-3-carboxamide] | 2.09 | 2.99 | 0.046 | 
CN(CC1OCCO1)C1CCN(C(=O)Cn2cc(NC(=O)c3cnn4cccnc34)c(-c3cc(Cl)ccc3OC(F)F)n2)CC1 [Example 433, N-(1-(2-(4-(((1,3-dioxolan-2-yl)methyl)(methyl)amino)piperidin-1-yl)-2-oxoethyl)-3-(5-chloro-2-(difluoromethoxy)phenyl)-1H-pyrazol-4-yl)pyrazolo[1,5-a]pyrimidine-3-carboxamide] | 1.16 | 0.42 | 0.036 | 
O=C(Nc1cn(CC(=O)N2CCC(N3CCNCC3=O)CC2)nc1-c1cc(Cl)ccc1OC(F)F)c1cnn2cccnc12 [Example 445, N-(3-(5-chloro-2-(difluoromethoxy)phenyl)-1-(2-oxo-2-(4-(2-oxopiperazin-1-yl)piperidin-1-yl)ethyl)-1H-pyrazol-4-yl)pyrazolo[1,5-a]pyrimidine-3-carboxamide] | 0.87 | 0.35 | 0.3 | 
N#CCCCN1CCN(C(=O)Cn2cc(NC(=O)c3cnn4cccnc34)c(-c3cc(Cl)ccc3OC(F)F)n2)CC1 [Example 461, N-(3-(5-chloro-2-(difluoromethoxy)phenyl)-1-(2-(4-(3-cyanopropyl)piperazin-1-yl)-2-oxoethyl)-1H-pyrazol-4-yl)pyrazolo[1,5-a]pyrimidine-3-carboxamide] | 0.84 | 0.4 | 0.0117 | 
CN(C)C(=O)CN(C)C1CCN(C(=O)Cn2cc(NC(=O)c3cnn4cccnc34)c(-c3cc(Cl)ccc3OC(F)F)n2)CC1 [Example 400, N-(3-(5-chloro-2-(difluoromethoxy)phenyl)-1-(2-(4-((2-(dimethylamino)-2-oxoethyl)(methyl)amino)piperidin-1-yl)-2-oxoethyl)-1H-pyrazol-4-yl)pyrazolo[1,5-a]pyrimidine-3-carboxamide] | 1.73 | 0.58 | 0.0309 | 
COC(=O)CNC1CCN(C(=O)Cn2cc(NC(=O)c3cnn4cccnc34)c(-c3cc(Cl)ccc3OC(F)F)n2)CC1 [Example 329, methyl 2-[[1-(2-[3-[5-chloro-2-(difluoromethoxy)phenyl]-4-[pyrazolo[1,5-a]pyrimidine-3-amido]-1H-pyrazol-1-yl]acetyl)piperidin-4-yl]amino]acetate formate] | 0.76 |  | 0.0115 | 0.3
O=C(Nc1cn(CC(=O)N2CCN(Cc3ncco3)CC2)nc1-c1cc(Cl)ccc1OC(F)F)c1cnn2cccnc12 [Example 380, N-[3-[5-chloro-2-(difluoromethoxy)phenyl]-1-[2-[4-(1,3-oxazol-2-ylmethyl)piperazin-1-yl]-2-oxoethyl]-1H-pyrazol-4-yl]pyrazolo[1,5-a]pyrimidine-3-carboxamide] | 0.68 | 0.3 | 0.0481 | 
CN1CCCC2CN(C(=O)Cn3cc(NC(=O)c4cnn5cccnc45)c(-c4cc(Cl)ccc4OC(F)F)n3)CC21 (stereo not drawn) [Example 440, N-(3-(5-chloro-2-(difluoromethoxy)phenyl)-1-(2-(1-methyl-octahydropyrrolo[3,4-b]pyridin-6-yl)-2-oxoethyl)-1H-pyrazol-4-yl)pyrazolo[1,5-a]pyrimidine-3-carboxamide] | 0.54 | 0.46 | 0.0068 | 
COC(=O)CN1CCN(C(=O)Cn2cc(NC(=O)c3cnn4cccnc34)c(-c3cc(Cl)ccc3OC(F)F)n2)CC1 [Example 322, methyl 2-[4-(2-[3-[5-chloro-2-(difluoromethoxy)phenyl]-4-[pyrazolo[1,5-a]pyrimidine-3-amido]-1H-pyrazol-1-yl]acetyl)piperazin-1-yl]acetate] | 0.8 | 0.31 | 0.0411 | 
N#CC1CN(C2CCN(C(=O)Cn3cc(NC(=O)c4cnn5cccnc45)c(-c4cc(Cl)ccc4OC(F)F)n3)CC2)C1 [Example 446, N-(3-(5-chloro-2-(difluoromethoxy)phenyl)-1-(2-(4-(3-cyanoazetidin-1-yl)piperidin-1-yl)-2-oxoethyl)-1H-pyrazol-4-yl)pyrazolo[1,5-a]pyrimidine-3-carboxamide] | 1.3 | 0.45 | 0.0121 | 
CCCN1CCN(C(=O)Cn2cc(NC(=O)c3cnn4cccnc34)c(-c3cc(Cl)ccc3OC(F)F)n2)CC1 [Example 319, N-[3-[5-chloro-2-(difluoromethoxy)phenyl]-1-[2-oxo-2-(4-propylpiperazin-1-yl)ethyl]-1H-pyrazol-4-yl]pyrazolo[1,5-a]pyrimidine-3-carboxamide] | 0.86 | 0.5 | 0.0577 | 
CN1CCN(CC2CCN(C(=O)Cn3cc(NC(=O)c4cnn5cccnc45)c(-c4cc(Cl)ccc4OC(F)F)n3)CC2)CC1 [Example 350, N-[3-[5-chloro-2-(difluoromethoxy)phenyl]-1-(2-[4-[(4-methylpiperazin-1-yl)methyl]piperidin-1-yl]-2-oxoethyl)-1H-pyrazol-4-yl]pyrazolo[1,5-a]pyrimidine-3-carboxamide] | 1.42 | 0.43 | 0.0094 | 
O=C(Nc1cn(C/C=C/CN2CCOCC2)nc1-c1cc(Cl)ccc1OC(F)F)c1cnn2cccnc12 [Example 394, N-[3-[5-chloro-2-(difluoromethoxy)phenyl]-1-[(2E)-4-(morpholin-4-yl)but-2-en-1-yl]-1H-pyrazol-4-yl]pyrazolo[1,5-a]pyrimidine-3-carboxamide] | 0.61 | 0.87 | 0.0311 | 
CN(C)CC(O)Cn1cc(NC(=O)c2cnn3cccnc23)c(-c2cc(Cl)ccc2OC(F)F)n1 (stereo not drawn) [Example 404, N-(3-(5-chloro-2-(difluoromethoxy)phenyl)-1-(3-(dimethylamino)-2-hydroxypropyl)-1H-pyrazol-4-yl)pyrazolo[1,5-a]pyrimidine-3-carboxamide] | 0.61 | 1.68 | 0.0078 | 
O=C(Nc1cn(CCNCc2ncco2)nc1-c1cc(Cl)ccc1OC(F)F)c1cnn2cccnc12 [Example 367, N-[3-[5-chloro-2-(difluoromethoxy)phenyl]-1-[2-[(1,3-oxazol-2-ylmethyl)amino]ethyl]-1H-pyrazol-4-yl]pyrazolo[1,5-a]pyrimidine-3-carboxamide] | 0.5 | 0.83 | 0.0352 | 
CN1CCN(C2CCN(C(=O)Cn3cc(NC(=O)c4cnn5cccnc45)c(-c4cc(Cl)ccc4OC(F)F)n3)CC2)CC1 [Example 349, N-[3-[5-chloro-2-(difluoromethoxy)phenyl]-1-[2-[4-(4-methylpiperazin-1-yl)piperidin-1-yl]-2-oxoethyl]-1H-pyrazol-4-yl]pyrazolo[1,5-a]pyrimidine-3-carboxamide] | 1.65 | 0.55 | 0.0155 | 
CN(CC1CCC(=O)O1)C1CCN(C(=O)Cn2cc(NC(=O)c3cnn4cccnc34)c(-c3cc(Cl)ccc3OC(F)F)n2)CC1 (stereo not drawn) [Example 344, N-[3-[5-chloro-2-(difluoromethoxy)phenyl]-1-[2-(4-[methyl[(5-oxooxolan-2-yl)methyl]amino]piperidin-1-yl)-2-oxoethyl]-1H-pyrazol-4-yl]pyrazolo[1,5-a]pyrimidine-3-carboxamide] | 1.9 | 0.7 | 0.0484 | 
O=C(Nc1cn(CCNCc2ccccc2O)nc1-c1cc(Cl)ccc1OC(F)F)c1cnn2cccnc12 [Example 326, N-[3-[5-chloro-2-(difluoromethoxy)phenyl]-1-(2-[[(2-hydroxyphenyl)methyl]amino]ethyl)-1H-pyrazol-4-yl]pyrazolo[1,5-a]pyrimidine-3-carboxamide] | 0.28 | 0.21 | 0.007 | 
NC1CCC(=CCn2cc(NC(=O)c3cnn4cccnc34)c(-c3cc(Cl)ccc3OC(F)F)n2)CC1 (stereo not drawn) [Example 422, N-(1-(2-(4-amino-cyclohexylidene)ethyl)-3-(5-chloro-2-(difluoromethoxy)phenyl)-1H-pyrazol-4-yl)pyrazolo[1,5-a]pyrimidine-3-carboxamide] | 1.77 | 0.89 | 0.061 | 
CC(F)(F)CNC1CCN(C(=O)Cn2cc(NC(=O)c3cnn4cccnc34)c(-c3cc(Cl)ccc3OC(F)F)n2)CC1 [Example 463, N-(3-(5-chloro-2-(difluoromethoxy)phenyl)-1-(2-(4-(2,2-difluoro-propylamino)piperidin-1-yl)-2-oxoethyl)-1H-pyrazol-4-yl)pyrazolo[1,5-a]pyrimidine-3-carboxamide] | 0.7 | 0.31 | 0.007 | 
